Experimental data as given in patent publication US7361666B2, “Heterocyclic analgesic compounds and methods of use thereof” (Sepracor, Inc., priority 1999, dated 2008).
pIC50: −log10 of the molar value.

Tests used:
κ opioid receptor = κ opioid receptor (Cavia porcellus, UniProt P41144); assay: Opiate receptor binding (κ); settings: procedure of Maguire et al.
Protocol: (§1) The opioid (μ, κ, δ) receptor-binding capabilities of compounds described herein were determined according to the procedures outlined by Wang et al. (FEBS Letters 1994, 338, 217), Maguire et al. (Eur. J. Pharmacol. 1992, 213, 219), and Simonin et al. (Mol. Pharmacol. 1994, 46, 1015).

μ opioid receptor = μ opioid receptor (Homo sapiens, UniProt P35372); assay: Opiate receptor binding (μ); settings: procedure of Wang et al.
Chain of μ opioid receptor (P35372 whole entry): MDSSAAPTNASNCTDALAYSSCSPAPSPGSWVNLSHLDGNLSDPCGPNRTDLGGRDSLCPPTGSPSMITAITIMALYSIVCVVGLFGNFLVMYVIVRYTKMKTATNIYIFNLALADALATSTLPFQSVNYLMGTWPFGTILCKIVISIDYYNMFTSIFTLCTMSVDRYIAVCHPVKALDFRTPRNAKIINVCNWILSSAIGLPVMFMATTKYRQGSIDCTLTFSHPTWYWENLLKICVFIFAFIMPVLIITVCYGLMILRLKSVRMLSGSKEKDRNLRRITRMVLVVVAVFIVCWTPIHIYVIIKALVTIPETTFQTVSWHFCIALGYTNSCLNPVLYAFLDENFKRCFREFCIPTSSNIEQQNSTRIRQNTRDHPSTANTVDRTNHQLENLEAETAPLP
Excerpt: Another assay useful in the present invention concerns determining the ability of a ligand to bind to a biological receptor utilizing a technique well known in the art referred to as a radioligand binding assay. This assay accurately determines the specific binding of a radioligand to a targeted receptor through the delineation of its total and nonspecific binding components. Total binding is defined as the amount of radioligand that remains following the rapid separation of the radioligand bound in a receptor preparation (cell homogenates or recombinate receptors) from that which is unbound. The nonspecific binding component is defined as the amount of radioligand that remains following separation of the reaction mixture consisting of receptor, radioligand and an excess of unlabeled ligand. Under this condition, the only radioligand that remains represents that which is bound to components other that receptor. The specific radioligand bound is determined by subtracting the nonspecific from total radioactivity bound. For a specific example of radioligand binding assay for μ-opioid receptor, see Wang, J. B. et al. FEBS Letters 1994, 338, 217.
as §1

δ opioid receptor = δ opioid receptor (Homo sapiens, UniProt P41143); assay: Opiate receptor binding (δ); settings: procedure of Simonin et al.
Chain of δ opioid receptor (P41143 whole entry): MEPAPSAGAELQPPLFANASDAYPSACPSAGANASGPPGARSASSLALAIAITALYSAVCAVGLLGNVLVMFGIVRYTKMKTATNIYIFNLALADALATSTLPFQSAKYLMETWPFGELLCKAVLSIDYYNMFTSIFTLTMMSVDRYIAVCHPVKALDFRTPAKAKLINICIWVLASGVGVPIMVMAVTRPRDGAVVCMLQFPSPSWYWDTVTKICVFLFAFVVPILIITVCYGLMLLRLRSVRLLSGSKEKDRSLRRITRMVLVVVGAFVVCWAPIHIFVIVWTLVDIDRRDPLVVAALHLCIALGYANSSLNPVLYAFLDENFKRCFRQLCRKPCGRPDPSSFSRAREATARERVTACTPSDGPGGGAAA
Protocol: as §1

Chain of κ opioid receptor (P41144 whole entry): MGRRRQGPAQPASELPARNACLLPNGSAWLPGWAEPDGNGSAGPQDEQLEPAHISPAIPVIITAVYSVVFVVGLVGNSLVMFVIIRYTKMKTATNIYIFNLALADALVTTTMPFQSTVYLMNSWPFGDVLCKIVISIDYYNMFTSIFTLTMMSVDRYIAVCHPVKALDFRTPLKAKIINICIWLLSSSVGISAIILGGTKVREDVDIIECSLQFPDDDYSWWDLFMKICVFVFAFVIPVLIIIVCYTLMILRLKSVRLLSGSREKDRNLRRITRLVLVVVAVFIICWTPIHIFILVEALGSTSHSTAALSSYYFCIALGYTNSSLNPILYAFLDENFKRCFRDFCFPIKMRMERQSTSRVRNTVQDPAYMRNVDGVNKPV

| SMILES | pIC50 (κ opioid receptor) | pIC50 (μ opioid receptor) | pIC50 (δ opioid receptor) |
| --- | --- | --- | --- |
| CCC(=O)N(CC1CCCN(CCc2ccccc2)C1)C(C)c1ccccc1 (single isomer, unassigned) [Compound 220, N-(1-Phenethyl-piperidin-3-ylmethyl)-N-(1-phenyl-ethyl)-propionamide] | > 6.00 | > 6.00 | < 6.00 |
| CCC(=O)N(CC1CCCN(CCc2ccccc2)C1)C(C)c1ccccc1 (single isomer, unassigned) [Compound 221, N-(1-Phenethyl-piperidin-3-ylmethyl)-N-(1-phenyl-ethyl)-propionamide] | > 6.00 | > 6.00 | < 6.00 |
| CCC(=O)N(CC1CCCN(CCc2ccccc2)C1)C(C)c1ccccc1 (single isomer, unassigned) [Compound 222, N-(1-Phenethyl-piperidin-3-ylmethyl)-N-(1-phenyl-ethyl)-propionamide] | < 6.00 | < 6.00 | < 6.00 |
| CCC(=O)N(CC1CCCN(CCc2ccccc2)C1)C(C)c1ccccc1 (single isomer, unassigned) [Compound 223, N-(1-Phenethyl-piperidin-3-ylmethyl)-N-(1-phenyl-ethyl)-propionamide] | < 6.00 | > 7.00 | < 6.00 |
| CCC(=O)N(CC1CCCN(CCc2ccccc2)C1)C(C)c1ccccc1 (single isomer, unassigned) [Compound 224, N-(1-Phenethyl-piperidin-3-ylmethyl)-N-(1-phenyl-ethyl)-propionamide] | < 6.00 | > 6.00 | < 6.00 |
| CCC(=O)N(CC1CCCN(CCc2ccccc2)C1)C(C)c1ccccc1 (single isomer, unassigned) [Compound 225, N-(1-Phenethyl-piperidin-3-ylmethyl)-N-(1-phenyl-ethyl)-propionamide] | < 6.00 | > 6.00 | < 6.00 |
